Experimental data from patent US7345078B2, “NF-κB inhibitors and uses thereof” (The Board of Trustees of Michigan State University, priority 2002, dated 2008).
Entries after “also recorded” stand apart in the source; their conditions may differ. Where two headings read alike, the source gives them in different places.

How the values were obtained:
Bacillus cereus = assay: standardized disk diffusion method (zone diameter / MIC); format: cell-based; details: at the amount printed in the same cell
Protocol: (§1) Compounds 4, 6, and 7 were tested for the inhibition of bacteria. A total of 9 bacterial strains were screened. The following Gram-negative and Gram-positive bacteria were included: Staphylococcus aureus, Enterobacter aerogenes, Esherichia coli, Klebsiella pneumonia, Pseudomonas aeruginosa, Serratia marcescens, Bacillus cerius, Bacillus subtillus and micrococcus luteus. Bacterial isolates were removed from storage, streaked on to nutrient agar plates and incubated for 18-24 hours at 35° C. A working bacterial suspension was prepared by suspending 3-5 isolated colonies in 5 mL saline solution. The turbidity of this suspension was carefully adjusted photometrically to equal that of a 0.5 McFarland standard. The zone diameters were determined by a standardized disk diffusion method using cation-supplemented Mueller-Hinton agar according to NCCLS guidelines (National Committee for Clinical Laboratory Standards. Methods for dilution Antimicrobial Susceptibility Tests for Bacteria that Grow Aerobically. Fifth Edition: Approved Standard M7-A5. Wayne, Pa.: NCCLS (2000)). Minimum inhibitory concentrations (MICs) were considered the lowest concentration that gave a clear zone of inhibition. The inoculated agar plates were incubated for 16-20 hours at 35° C. in ambient air. The diameters of the zones were read in millimeters.

Bacillus subtillus = assay: as above; format: cell-based; details: at the amount printed in the same cell
Protocol: as §1

Micrococcus luteus = assay: as above; format: cell-based; details: at the amount printed in the same cell
Protocol: as §1

Staphylococcus aureus = assay: as above; format: cell-based; details: at the amount printed in the same cell
Protocol: as §1

NF-κB [1] = target: T1, NF-κB (Homo sapiens, UniProt P19838+Q04206); assay: EMSA of nuclear NF-κB-DNA binding in nuclear extracts of PMA-stimulated Jurkat leukemia T-cells; format: cell-based; design: endogenous in cells; host or cells: Jurkat leukemia T-cells, clone E6-1 (ATCC), PMA-stimulated; nuclear extract; details: for inhibition at 0.1 µM: compound 0.1 μM (100 nM)
T1 sequence (Q04206 whole entry): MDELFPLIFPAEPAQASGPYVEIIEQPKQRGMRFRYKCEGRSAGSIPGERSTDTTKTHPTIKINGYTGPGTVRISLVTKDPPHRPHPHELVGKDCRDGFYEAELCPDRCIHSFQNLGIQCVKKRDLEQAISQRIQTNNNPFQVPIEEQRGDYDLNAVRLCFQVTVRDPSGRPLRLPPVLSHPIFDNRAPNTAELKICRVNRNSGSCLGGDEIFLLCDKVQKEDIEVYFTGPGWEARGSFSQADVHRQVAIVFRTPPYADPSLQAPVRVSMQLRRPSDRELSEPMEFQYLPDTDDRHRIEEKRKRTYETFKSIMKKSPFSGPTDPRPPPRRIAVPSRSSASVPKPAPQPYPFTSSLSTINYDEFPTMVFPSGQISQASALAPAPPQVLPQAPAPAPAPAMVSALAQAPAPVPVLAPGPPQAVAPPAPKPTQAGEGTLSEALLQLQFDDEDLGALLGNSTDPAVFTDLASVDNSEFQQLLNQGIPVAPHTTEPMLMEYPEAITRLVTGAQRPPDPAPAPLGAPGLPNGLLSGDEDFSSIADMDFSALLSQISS
T1 sequence (P19838 1-433 limits assumed): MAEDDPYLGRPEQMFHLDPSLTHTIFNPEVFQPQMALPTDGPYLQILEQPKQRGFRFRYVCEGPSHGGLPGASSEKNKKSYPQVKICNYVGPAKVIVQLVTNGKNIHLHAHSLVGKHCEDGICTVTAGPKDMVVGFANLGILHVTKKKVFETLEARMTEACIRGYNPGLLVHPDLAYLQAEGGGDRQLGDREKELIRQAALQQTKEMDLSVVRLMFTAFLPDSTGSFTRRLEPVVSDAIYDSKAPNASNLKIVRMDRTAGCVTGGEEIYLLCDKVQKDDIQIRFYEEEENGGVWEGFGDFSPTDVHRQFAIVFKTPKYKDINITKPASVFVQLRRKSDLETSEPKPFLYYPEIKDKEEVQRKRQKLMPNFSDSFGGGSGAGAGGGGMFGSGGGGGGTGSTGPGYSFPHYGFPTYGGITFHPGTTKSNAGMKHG
Protocol: (§2) All compounds were evaluated for their potential anti-inflammatory activity by examining the activity of NF-κB in vitro in nuclear extracts using the procedure from Breton and Charbot-Fletcher (Breton et al., J. Pharmacol. Exp. Ther. 282 459-466 (1997)). […] The Jurkat cells (1×10^7 cells/mL) are subsequently treated with various concentrations of imidazoline for 30 minutes at 37° C. followed by PMA stimulation (5.0 ng/mL) for an additional 5 hours. Nuclear extracts are incubated for 20 minutes with a double stranded Cy3 labeled NF-κB consensus oligonucleotide, 5′-[…]-3′ (SEQ ID NO:1) at room temperature. The crude mixture is loaded on a 5% non-denaturing polyacrylamide gel prepared in 1×Tris borate/EDTA buffer and electrophoresed at 200V for 2 hours. After electrophoresis the gel is analyzed using a phosphorimager (Biorad FX PLUS) for detection of the NF-κB-DNA binding.
EMSA assay for NF-κB-DNA binding was as follows. […] The Jurkat cells (1×10^6 cells/mL) were subsequently treated with various concentrations of the compounds for 30 minutes at 37° C. and 5% CO2 followed by PMA (50 ng/mL) and PHA ([…]) stimulation for an additional 30 minutes. The cells were harvested by centrifugation, washed in ice cold PBS and the nuclear extracts were prepared as previously described (Dignam, et al., Nucl. Acids Res 11: 1475-1489 (1983)). The protein concentration of the extracts was determined according to the Method of Bradford (1976) with BioRad reagents. Nuclear extracts are incubated for 20 minutes at room temperature with a double stranded Cy3 labeled NF-kB consensus oligonucleotide, 5′-[…] CCAGGC-3′ (SEQ ID NO:1). The binding mixture ([…]) contained 10 mM HEPES-NaOH pH 7.9, 4 mM tris-HCl, pH 7.9, 6.0 mM KCl, 1 mM EDTA, 1 mM DTT, 10% glycerol, 0.3 mg/mL bovide serum albumin and […] of poly (dI.dC). The binding mixtures ([…] of nuclear extract protein) were incubated for 20 minutes at room temrperature with 0.16 pmol of Cy3 labeled oligonucleotide. The mixture was loaded on a 4% polyacrylamide gel prepared in 1× tris borate/EDTA buffer and was electrophoresed at 200 V for 20 minutes. After electrophoresis the gel was analyzed using a phosphorimager (Biorad FX plus) for detection of the NF-kB—DNA binding.

RIF-1 murine tumor = assay: RIF-1 murine model of tumor growth delay; format: in vivo, mice; details: for Days Delay (tumor growth delay) / Median (days to 4x) / Days to 4x (Ave ±SE): IP, imidazoline 100 mg/kg, cis-platin 4 mg/kg, camptothecin 6 mg/kg; for Median (days to 4x): untreated 7.0; for Days to 4x (Ave ±SE): untreated 7.3 ± 0.6; for chemopotentiation of camptothecin: combinational treatment with camptothecin (CPT); for chemopotentiation of camptothecin / chemopotentiation of cis-platin: RIF-1 tumors in mice; for chemopotentiation of cis-platin: combinational treatment with cis-platin (CDDP)
Protocol: Tumor cells were injected, bilaterally, into the backs of mice. When tumors reached 100 mm^3, the mice were treated with an intraperitoneal injection of the compound. Tumor volumes were measured 3 times a week until they reached 4 times the size they were on the first treatment day. Data is recorded as “Days to 4×’ or ratio of ‘Days to 4×” of the treated over untreated controls.

NF-κB [2] = target: T1, NF-κB; assay: IC50 values in Mammalian Jurkat cells Leukemia T cells; format: cell-based; design: endogenous in cells; host or cells: Jurkat leukemia T-cells, clone E6-1 (ATCC), PMA-stimulated; nuclear extract; details: concentration at which 50% of the protein/enzyme is inhibited in cells
Protocol: as §2
IC50 values in Mammalian Jurkat cells Leukemia T cells: IC50 value is defined as the concentration of compounds at which 50% of the protein/enzyme is inhibited in cells (Table 3).

CEM cells = system: CEM cells
Protocol: Imidazolines 28-33 were evaluated for their ability to enhance the activity of camptothecin in CEM cells. Induction of apoptosis is the hallmark of most chemotherapeutic agents including camptothecin. The systematic disassembly of apoptotic cells is accomplished by active caspases (Thornberry et al., Nature 356: 768-774 (1992); Nicholson et al., Trends Biochem. Sci. 22: 299-306 (1997)). A standard apoptosis assay is Promega's APO-ONE homogeneous caspase-3/7 assay, which takes advantage of this caspase activity to directly quantify the induction of apoptosis in cells (Thornberry et al., Nature 356: 768-774 (1992); Nicholson et al., Trends Biochem. Sci. 22: 299-306 (1997)). According to the hypothesis that NF-κB inhibition should enhance the activity of chemotherapeutic agents via the inhibition of anti-apoptotic signaling pathway—thus enhancement of apoptosis—(Boland, Biochem Soc Trans 29: 674-678 (2001); Chiao et al., Cancer 95: 1696-1705 (2002)), we investigated the effects of the imidazolines using this caspase-3/7 assay. This assay quantifies the level of apoptotic cell death induced by camptothecin with and without the imidazolines and will establish the direct level of enhancement of apoptosis by camptothecin.
Induction of apoptosis using caspase 3/7 assay was as follows. CEM cells (CCRF-CEM); Amer. Type Culture Collection, Rockville, Md.) were grown in RPMI-1640 Media (Gibco-BRL, Rockville, Md.) supplemented with 10% fetal bovine serum, penicillin (614 ηg/mL), streptomycin (10 μg/mL) and hepes buffer, pH 7.2 at 37° C., 5% CO2. DMSO was used as the vector for all drugs and added in the control experiments. Cell cultures were treated with 1 μM, 0.1 μM or 10 nM of the imidazolines and allowed to incubate at 37° C., 5% CO2. An aliquote was transferred to a 96-well plate and mixed with an equal volume of Apo-ONE™ Homogenous Caspase-3/7 assay (Promega Corporation) reagent. The contents of the plate were gently mixed and allowed to incubate for 1 hour. The fluorescence of each well was then measured on a Molecular Imager FX Pro at 532 nm. All reported data was the average of two independent experiments unless otherwise indicated.

[3] = IP, doses 5.0 and 50 mg/kg
Protocol: Prior to the combinatorial studies, the toxicity of the compounds was determined in the mouse model. […] In short, the drugs are dissolved in DMSO and 100 μL given to the mice on day 0 by intraperitoneal injection (IP). […] Weight and death were the two measures of toxicity.

[4] = system: NF-κB p50/p65 heterodimer; assay: p65-ELISA assay of NF-κB nuclear translocation in Jurkat cells; format: cell-based, Human; details: concentrations 100 ηM-5.0 μM, 30 minutes prior to PMA activation
Protocol: Inhibition of the nuclear translocation of the p50/p65 heterodimer of NF-κB was confirmed by a p65-ELISA assay. Cells were treated with the PDTC (positive control-reported to inhibit IκB phosphorylation thus inhibiting NF-κB translocation), and imidazoline 32, 30 minutes prior to PMA activation, followed by the isolation of the nuclear extract after a 30 minute incubation period.
The quantity of p65/p50 heterodimer that has translocated into the nucleus was measured using a NF-κB p65 sandwich ELISA assay (Imgenex Corp.). Jurkat cells were grown to 2×10^6 cells/mL and treated with 50 ng/mL PMA and 1 μg/mL PMA/PHA and incubated at 37° C., 5% CO2. The cells are harvested after 30 minutes and nuclear extracts are prepared as previously described by Dignam and coworkers (Dignam, et al., Nucl. Acids Res 11: 1475-1489 (1983)). The NF-κB p65 sandwich ELISA kit was then used to monitor and quantify p65 translocation into the nucleus according to the manufacturers protocol.

NF-κB [5] = target: T1, NF-κB; assay: EMSA of camptothecin activated NF-κB in CEM leukemia T-cells; format: cell-based; design: endogenous in cells; nuclear extract; details: for inhibition of camptothecin induced NF-κB nuclear binding: CPT 0.1 μM, 32 at 10 μM to 10 nM, PDTC 5 μM
Protocol: CEM cells were incubated with and without varying concentrations of camptothecin (CPT). Positive controls included PMA/PHA activation (FIG. 11, lane 2). Lane 3 included a positive control using PMA/PHA activation followed by the treatment of the extract with a NF-κB p65 antibody to unambiguously identify the NF-κB/DNA complex.
CEM cells were treated with various concentration of imidazoline 32, 30 minutes prior to activation by camptothecin (0.1 μM). […] Control lanes include: DNA only (lane 1), PMA/PHA activated NF-κB (lane 2), PMA/PHA activated NF-κB treated with a p65 antibody, which provide a supershift (lane 3) and the unactivated control (lane 4).
EMSA assay for NF-κB-DNA binding was as follows. […] The cells were harvested by centrifugation, washed in ice cold PBS and the nuclear extracts were prepared as previously described (Dignam, et al., Nucl. Acids Res 11: 1475-1489 (1983)). The protein concentration of the extracts was determined according to the Method of Bradford (1976) with BioRad reagents. Nuclear extracts are incubated for 20 minutes at room temperature with a double stranded Cy3 labeled NF-kB consensus oligonucleotide, 5′-[sequence] […] The binding mixture (25 mL) contained 10 mM HEPES-NaOH pH 7.9, 4 mM tris-HCl, pH 7.9, 6.0 mM KCl, 1 mM EDTA, 1 mM DTT, 10% glycerol, 0.3 mg/mL bovide serum albumin and 1 mg of poly (dI.dC). The binding mixtures (10 mg of nuclear extract protein) were incubated for 20 minutes at room temrperature with 0.16 pmol of Cy3 labeled oligonucleotide. The mixture was loaded on a 4% polyacrylamide gel prepared in 1× tris borate/EDTA buffer and was electrophoresed at 200 V for 20 minutes. After electrophoresis the gel was analyzed using a phosphorimager (Biorad FX plus) for detection of the NF-kB—DNA binding.

IC50 (NF-κB [2]) [nM] | inhibition at 0.1 µM (NF-κB [1]) [%] | Structure (SMILES) | zone of inhibition diameter (Micrococcus luteus) [mm] | Days Delay (tumor growth delay) (RIF-1 murine tumor) [days] | Median (days to 4x) (RIF-1 murine tumor) [days] | Days to 4x (Ave ±SE) (RIF-1 murine tumor) [days] | chemopotentiation of camptothecin (RIF-1 murine tumor) | chemopotentiation of cis-platin (RIF-1 murine tumor) | tolerability in mice [3] | inhibition of NF-κB p50/p65 heterodimer nuclear translocation [4] | inhibition of camptothecin induced NF-κB nuclear binding (NF-κB [5]) | other results
300 | 84 | C[C@]1(C(=O)O)N=C(c2ccccc2)N(Cc2ccccc2)[C@H]1c1ccncc1 (racemic) [Compound 6, Dl-(3S,4S)-1-Benzyl-4-methyl-2-phenyl-5-pyridin-4yl-4,5-dihydro-1H-imidazole-4-carboxylic acid] | 10 | -0.41 | 6.6 | 6.6 ± 0.3 | significant chemopotentiation | significant chemopotentiation | – | – | – | –
20 | 38 | C[C@]1(C(=O)O)N=C(c2ccccc2)N[C@H]1c1ccccc1 (racemic) [Compound 7, Dl (3S,4S)-4-Methyl-2,5-diphenyl-4,5-dihydro-1H-imidazole-4-carboxylic acid] | 10 | – | – | – | – | – | – | – | – | –
– | – | C[C@]1(C(=O)O)N=C(c2ccccc2)N(c2ccc(F)cc2)[C@H]1c1ccccc1 (racemic) [Compound 28, dl-(4S,5S)-1-(4-Fluorophenyl)-4-methyl-2,5-diphenyl-4,5-dihydro-1H-imidazole-4-carboxylic acid] | – | – | – | – | – | – | well tolerated | – | – | Apoptosis (±S.D.) (CEM cells; Compound 1.0 μm alone, T-cells, 48 hour period, cells only = 1.00 (normalized)): 1.25 ± 0.18
– | – | O=C(O)[C@@]1(c2ccccc2)N=C(c2ccccc2)N(Cc2ccccc2)[C@H]1c1ccccc1 (racemic) [Compound 32, dl-(4S,5S)-1-Benzyl-2,4,5-triphenyl-4,5-dihydro-1H-imidazole-4-carboxylic acid] | – | – | – | – | – | – | well tolerated | inhibition of nuclear translocation of NF-κB; also recorded: significantly inhibits | inhibited camptothecin induced NF-κB nuclear binding in a dose responds manner | Apoptosis (±S.D.) (CEM cells): 1.98 ± 0.0001; chemopotentiation of cis-platin (apoptosis) (CEM cells; CEM cells, 0.1 micromolar cis-platin + 0.1 micromolar 32 versus 1.0 micromolar cis-platin): chemopotentiation of cis-platin; also recorded: chemopotentiate cis-platin; induction of apoptosis in combination with camptothecin (CEM cells; CEM cells, CPT 0.1 μM with varying concentrations of imidazoline, 48 hours): dose dependent enhancement of apoptosis; NF-κB-DNA complex formation (NF-κB [5]; 0.1 μM CPT + 10 μM compound 32 (lane 7 versus lane 5)): significant decrease
– | – | N.S=C(S)N1CCCC1 [PDTC, reference compound] | – | – | – | – | – | – | – | significant inhibition; also recorded: inhibited NF-κB translocation | decrease of binding | –

Structure (SMILES) | IC50 (NF-κB [2]) [nM] | inhibition at 0.1 µM (NF-κB [1]) [%] | zone of inhibition diameter (Micrococcus luteus) [mm] | Days Delay (tumor growth delay) (RIF-1 murine tumor) [days] | Median (days to 4x) (RIF-1 murine tumor) [days] | Days to 4x (Ave ±SE) (RIF-1 murine tumor) [days] | chemopotentiation of camptothecin (RIF-1 murine tumor) | chemopotentiation of cis-platin (RIF-1 murine tumor) | tolerability in mice [3] | inhibition of NF-κB p50/p65 heterodimer nuclear translocation [4] | inhibition of camptothecin induced NF-κB nuclear binding (NF-κB [5]) | other results
O=C(O)[C@@]1(c2ccccc2)N=C(c2ccccc2)N(Cc2ccccc2)[C@H]1c1ccccc1 (racemic) [Compound 4, Dl-(3S,4S)-1-Benzyl-2,4,5-triphenyl-4,5-dihydro-1H-imidazole-4-carboxylic acid] | 73 | – | 12 | -0.56 | 6.5 | 6.4 ± 0.2 | No significant chemopotentiation | considerable chemopotentiation | – | – | – | zone of inhibition diameter (Bacillus cereus): 11 mm; zone of inhibition diameter (Bacillus subtillus): 13 mm; zone of inhibition diameter (Staphylococcus aureus): 12 mm; inhibition at 1 µM (NF-κB [1]; compound 1.0 μM): 65%; tumors < 4x at Day 22 (RIF-1 murine tumor; cis-platin 4 mg/kg + compound 4 100 mg/kg IP): 4 of the 8
